The record followed here is patent publication US8614021B2, “Agents for enhanced charge transport across microbial membranes” (The United States of America as represented by the …, priority 2010, dated 2013).

Data set [1] in a line: Cyclic voltammetry blocking experiment: transmembrane electron transport across sBLMs to aq. ferricyanide. The settings on record: for transmembrane electron transport across sBLM (current in CV): 2 mol % in DMPC and DPPC sBLMs, aq. ferricyanide, 200 mV/s scan rate. Here is the method: Bilayer membranes supported on glassy carbon electrodes were prepared according to a modified literature procedure (Huang, W.; Zhang, Z.; Han, X.; Tang, J.; Wang, J.; Dong, S.; Wang, E. Biophys. J. 2002, 83, 3245-3255; Wu, Z.; Tang, J.; Cheng, Z.; Yang, X.; Wang, E. Anal. Chem. 2000, 72, 6030-6033). […] Electrode surface modification was performed by applying a constant 1.5 V bias for four minutes to a freshly polished glassy carbon electrode submerged in a 0.1 M aq. NaOH solution. Upon completion of this process the electrode was dried via argon steam followed by deposition of a 5 μL aliquot of the desired DMPC membrane forming solution to the electrode surface. The solvent was allowed to evaporate and electrode was immediately placed into phosphate buffer (pH 7.4) to allow the bilayer to assemble over a 0.5 hour time period. The working electrode containing the supported bilayer lipid membrane (sBLM) was then used directly.
Cyclic voltammograms were collected at scan rates of 50-200 mV/sec using a standard three-electrode setup that employed a Pt wire counter electrode, a Ag/AgCl reference electrode and a glassy carbon working electrode (modified or unmodified). All runs were performed in aq. 0.5 M KCl electrolyte solution containing 1 mM potassium ferricyanide (the active redox and indicator species). Oxygen was removed from the system via bubbling Ar through the solution for several minutes prior to data collection. The working electrode was freshly polished between each run prior to voltammogram collection or sBLM formation followed by voltammogram collection. Data was collected within the range of 0-0.4 V potentials relative to Ag/AgCl.
OPVs within a saturated alkane thiol monolayer can facilitate charge tunneling from a metallic electrode to a tethered redox species (Dudek, S. P.; Sikes, H. D.; Chidsey, C. E. D. J. Am. Chem. Soc. 2001, 123, 8033-8038; Sikes, H. D.; Smalley, J. F.; Dudek, S. P.; Cook, A. R.; Newton, M. D.; Chidsey, C. E. D.; Feldberg, S. W. Science. 2001, 291, 1519-1523). A variation of this approach was used in which supported bilayer membranes (sBLM) containing DSSN+, DSBN+ and other control molecules were prepared on the surface of a glassy carbon electrode surface. The sBLM-modified electrodes were then employed in a series of ‘blocking’ experiments in which cyclic voltammetry was used to monitor the reversible […] of aqueous ferricyanide. The unmodified sBLM acts as an insulating layer between the working electrode and the solution containing ferricyanide thereby greatly suppressing the redox current (Wiegand, G.; Arribas-Layton, N.; Hillebrandt, H.; Sackmann, E.; Wagner, P. J. Phys. Chem. B. 2002, 106, 4245-4254; Żebrowska, A.; Krysiński, P.; ? otowski, Z. Bioelectrochemistry. 2002, 56, 179-184). […]

Data set [2] is described as follows: UV-Vis absorption and photoluminescence (PL) spectroscopy in solvents of varying polarity. The settings on record: for η (quantum efficiency): relative to a fluorescein standard at pH 12.
From the text: General photophysical and solvatochromatic features of the neutral (DSSN, DSBN) and charged (DSSN+, DSBN+) versions of each chromophore were probed by using UV-Vis absorption and photoluminescence (PL) spectroscopies.
The next data set concerns Baker's yeast. The experiment in a line: Yeast cell staining, confocal/epi-fluorescence imaging. The settings on record: for accumulation within cell membranes (fluorescence images): 100 μM, 1 hour of shaking, excitation 488 nm. In kind it is cell-based.
The nature of data set [3]: UV-Vis absorbance and PL spectroscopy of oligoelectrolytes embedded in lipid bilayers (DMPC vesicles). The settings on record: for εmax / λabs / λem / η: lipid bilayer; for blue (hypsochromic) shift in λem / red (bathochromic) shift in λabs: lipid bilayer (DMPC vesicle membranes) compared to water / pH 7.3 HEPES buffer; for η: relative to a fluorescein standard at pH 12.
Method: In order to prepare a typical membrane modified vesicle sample by sonication a methanolic DMPC solution containing a desired mol % DSBN+ was prepared (a typical solution is 1-5 mole % DSBN+ based on 50 micro-moles of DMPC). The methanol was slowly removed by argon flow while the solution was held at a constant 32-38° C. followed by vacuum oven drying at room temperature until dried to a constant weight. Next, enough H2O or pH 7 HEPES buffer was added to obtain a solution with a concentration of ˜1-20 mg/mL depending upon application (imaging or photoluminescence measurement for example). This solution was then sonicated at 40-50° C. for 0.5-7 hours, typically until the solution had lost most of its turbidity. This generates multi-lamellar vesicles. Uni-lamellar vesicles with diameters of ˜450 nm (with a somewhat broad size distribution based on cryo-TEM images) were formed as the resulting solution was filtered using 0.45 μm pore size syringe filters to yield a slightly turbid solution that must be further diluted to clarity with water or buffer in order to collect UV absorbance or photoluminescence spectra.
Efforts to modify the vesicle membranes with DSBN+ and DSSN+ followed modified literature procedures (Lin, A. J.; Slack, N. L.; Ahmad, A.; George, C. X.; Samuel, C. E.; Safinya, C. R. Biophys. J. 2003, 84, 3307-3316). First, a lipid stock solution containing the desired fraction of either DSSN+ or DSBN+, typically 1-5 mol % relative to lipid, was prepared in methanol. This lipid/COE stock solution was then heated and held above the transition temperature of the lipid (23° C. and 41° C. for DMPC and DPPC, respectively) as the solvent was removed via Argon flushing, followed by vacuum drying to a constant weight. The resulting lipid/COE solid was then suspended in pH=7.3 HEPES buffer to the desired concentration (1-10 mg/mL). Multi-lamellar vesicles were then formed by self-assembly upon sonication of the resulting solution. Uni-lamellar vesicles were prepared by filtration (using 0.45 or 0.2 μm pore size syringe filters) or by extrusion (Olson, F.; Hunt, C. A.; Szoka, F. C.; Vail, W. J.; Papahadjopoulos, D. Biochim. Biophys. Acta. 1979, 557, 9-23; Socaciu, C.; Bojarski, P.; Aberle, L.; Diehl, H. A. Biophys. Chem. 2002, 99, 1-15; Szoka, F.; Olson, F.; Heath, T.; Vail, W.; Mayhew, E.; Papahadjopoulos, D. Biochim. Biophys. Acta. 1980, 601, 559-571).

For the next data set, the system named is yeast. The experiment in a line: Yeast microbial fuel cell (U-tube MFC) voltage production. Format: cell-based. The settings on record: for Maximum voltage (Vmax): across a 10 kΩ resistor. The text has this:
Two-chamber MFCs were constructed in a similar fashion as previously described (Milliken, C. E.; May, H. D. Appl. Microbiol. Biotechnol. 2007, 73, 1180-1189; Sund, C. J.; Wong, M. S.; Sumner, J. J. Biosens. Bioelectron. 2009, 24, 3144-3147; Sund, C. J.; McMasters, S.; Crittenden, S. R.; Harrell, L. E.; Sumner, J. J. Appl. Microbiol. Biotechnol. 2007, 76, 561-568) with some modifications and pictured in FIG. 9. The anodes and cathodes consisted of carbon felt (100% Activated Carbon Fiber Filter, CarboPur Technologies, Montreal, Canada), ⅛ inch thick, cut to the dimensions of 5 cm by 1 cm. The carbon felts were attached to 0.25 mm diameter titanium wires (AlfaAesar, Ward Hill, Mass.) as electrical leads. A new piece of Nafion® 117 (DuPont, Wilmington, Del., USA) was used for each fuel cell. Anode wires were passed through silicone rubber septa used to seal the anode compartment following inoculation while the cathode compartment was covered with a loose-fitting glass vial. Each fuel cell compartment was filled with 20 ml of media and autoclaved. Inoculation of MFCs consisted of addition of 300 μL of stained (25 μM COE) or unstained yeast stock solution (O.D.=1.75). Methylene blue was added separately as a stock solution (0.1% by weight, 2.67 mM) for the positive control runs employing this mediator. MFCs were incubated in an aerobic 30° C. incubator and the potential across a 10 kΩ resistor was measured and recorded every 10 seconds via a DAQPad-6016 and a custom LabView® VI (National Instruments, Austin, Tex., USA).
A U-tube type MFC (Milliken, C. E.; May, H. D. Appl. Microbiol. Biotechnol. 2007, 73, 1180-1189; Sund, C. J.; Wong, M. S.; Sumner, J. J. Biosens. Bioelectron. 2009, 24, 3144-3147; Sund, C. J.; McMasters, S.; Crittenden, S. R.; Harrell, L. E.; Sumner, J. J. Appl. Microbiol. Biotechnol. 2007, 76, 561-568) (FIG. 9) was employed to test and compare the performance of a series of yeast MFCs employing nM concentrations of DSSN+ and DSBN+ to the performance of a series of negative controls with no external mediator and a series of positive controls employing the common electron transport mediator methylene blue in μM concentrations. The details of MFC construction, preparation, and evaluation are discussed in detail in the section entitled “Microbial fuel cell preparation and assembly.” MFC performance was evaluated in terms of voltage instead of current. Voltage readings were obtained as a function of current across a 10 kΩ resistor.

Data set [4] is described as follows: Cyclic voltammetry, oxidation of the oligoelectrolytes (current/potential curves). In kind it is physicochemical. The settings on record: vs. Ag/AgCl, 200 mV/s scan rate.

Entries after “also recorded” stand apart in the source; their conditions may differ.

Method for Baker's yeast: Stock solutions of DSSN+ and DSBN+ (1-5 mM, typically 5 mL) were prepared in pH 7.3 phosphate buffer. […] Cultures were never allowed to exceed an optical density of 6. In a typical cell staining run a 1 mL sample was transferred to 1.5 mL Eppendorf tube and the growth media was removed by centrifugation of cells followed by decanting of the growth media. The cells were then re-suspended in phosphate buffer and an appropriate volume of oligoelectrolyte stock solution was added to achieve a 10-100 μM concentration of DSSN+ or DSBN+. The cells were then shaken lightly for 10-180 min at room temperature. The cells can then be imaged directly or following buffer exchange via centrifugation and cell re-suspension. In an alternate procedure, as is the same staining (membrane incorporation) procedure performed with MFC inoculation samples, the cells are simply stained (by addition of COE stock solutions prepared in growth media to culture samples) and imaged directly in the original growth media. […] Sample preparation is completed by depositing a ˜3-6 μL aliquot of stained cell solution onto a traditional slide followed by a cover slip (in this case the slide is inverted and placed over a water or oil immersion objective interfaced with either a Nikon or Leica confocal fluorescence microscope). […]
FIG. 8 consists of two sets of confocal microscopy fluorescence images of Baker's yeast, each stained and imaged in a 100 μM solution of DSSN+ (FIG. 8A) or DSBN+ (FIG. 8B) after 1 hour of shaking without exchanging the staining media.
The ability of DSBN+ and DSSN+ to be passed on to or exist within cell membranes of subsequent yeast generations born over the course of MFC operation was also investigated. […] Cells from each of these aliquots were imaged using a confocal microscope in epi-fluorescence mode and brightfield mode. […] FIG. 11B is an epi-fluorescence and brightfield image (inset, lower left) of a small group of yeast cells removed from the same MFC on the fourth day of operation.

Consider `C[N+](C)(C)CCCCCCN(CCCCCC[N+](C)(C)C)c1ccc(C=Cc2ccc(C=Cc3ccc(N(CCCCCC[N+](C)(C)C)CCCCCC[N+](C)(C)C)cc3)cc2)cc1.[I-].[I-].[I-].[I-]` [DSBN+, 1,4-bis(4′-(N,N-bis(6″-(N,N,N-trimethylammonium)hexyl)amino)-styryl)benzene tetraiodide], for which the “transmembrane electron transport across sBLM (current in CV)” value in data set [1] is “facilitate transmembrane electron transport; also recorded: display higher currents with respect to the control experiments”. Further, in data set [2] (DMSO), the “εmax (molar extinction coefficient at λmax)” value is given as 8.2 Lmol^−1cm^−1 × 10^−4, the λabs worked out at 419 nm, the λem worked out at 511 nm and the “η (quantum efficiency)” value is recorded as 0.86. Moreover, in data set [2] (water), the “εmax (molar extinction coefficient at λmax)” value stood at 6.0 Lmol^−1cm^−1 × 10^−4, the λabs is recorded as 406 nm, the λem is recorded as 566 nm and the “η (quantum efficiency)” value is recorded as 0.33. Besides, the “accumulation within cell membranes (fluorescence images)” value in the data set on Baker's yeast is “apparent preferential accumulation of the COEs within cell membranes”. In data set [3], the εmax was 4.8 Lmol^−1cm^−1 × 10^−4, the λabs is listed as 422 nm, the λem was 474 nm and the “blue (hypsochromic) shift in λem” value worked out at 92 nm. Moreover, in data set [3], the “red (bathochromic) shift in λabs” value turned out to be 16 nm and the η is 0.59. For the same compound, the “Maximum voltage (Vmax)” value with yeast (190 nM) was roughly 55 mV. Also, in data set [4], the “oxidation potential (Eox)” value was roughly 0.55 V.

For the compound `C[N+](C)(C)CCCCCCN(CCCCCC[N+](C)(C)C)c1ccc(/C=C/c2ccc(/C=C/c3ccc(/C=C/c4ccc(N(CCCCCC[N+](C)(C)C)CCCCCC[N+](C)(C)C)cc4)cc3)cc2)cc1` [DSSN+, 4,4′-bis(4′-(N,N-bis(6″-(N,N,N-trimethylammonium)hexyl)amino)-styryl)stilbene tetraiodide], the “transmembrane electron transport across sBLM (current in CV)” value in data set [1] was “facilitate transmembrane electron transport; also recorded: display higher currents with respect to the control experiments”. In data set [1] (2 mol % in sBLMs), the “current response of sBLMs containing DSSN+ instead of DSBN+” value is “greater current response”. In addition, in data set [2] (DMSO), the “εmax (molar extinction coefficient at λmax)” value is 9.8 Lmol^−1cm^−1 × 10^−4, the λabs is recorded as 435 nm, the λem came to 596 nm and the “η (quantum efficiency)” value amounted to 0.71. For the same compound, in data set [2] (water), the “εmax (molar extinction coefficient at λmax)” value is recorded as 6.6 Lmol^−1cm^−1 × 10^−4, the λabs was 412 nm, the λem is recorded as 594 nm and the “η (quantum efficiency)” value is 0.06. Further, in the data set with Baker's yeast, the “accumulation within cell membranes (fluorescence images)” value is listed as “apparent preferential accumulation of the COEs within cell membranes”. The “presence of mediator in later cell generations” value in the data set on Baker's yeast (yeast stained with 25 μM, removed from MFC on day 4 of operation) is reported as “demonstrate the presence of this mediator in later cell generations”. For the same compound, in data set [3], the εmax is 8.4 Lmol^−1cm^−1 × 10^−4, the λabs turned out to be 433 nm, the λem was found to be 532 nm and the “blue (hypsochromic) shift in λem” value turned out to be 62 nm. Also, in data set [3], the “red (bathochromic) shift in λabs” value is listed as 21 nm and the η is given as 0.85. Also, the “increase in voltage production compared to methylene blue” value with yeast (190 nM vs 13 μM methylene blue) is on record as roughly 5 fold. Further, the “Maximum voltage (Vmax)” value in the data set with yeast (190 nM) was roughly 200 mV. Moreover, in data set [4], the “oxidation potential (Eox)” value is reported as roughly 0.55 V.

With `ICCCCCCN(CCCCCCI)c1ccc(C=Cc2ccc(C=Cc3ccc(C=Cc4ccc(N(CCCCCCI)CCCCCCI)cc4)cc3)cc2)cc1` [DSSN, 4,4′-bis(4′-(N,N-bis(6″-iodohexyl)amino)styryl)stilbene], in data set [2] (DMSO), the “εmax (molar extinction coefficient at λmax)” value was 9.6 Lmol^−1cm^−1 × 10^−4, the λabs is reported as 436 nm, the λem is recorded as 602 nm and the “η (quantum efficiency)” value is 0.73. In addition, in data set [2] (THF), the “εmax (molar extinction coefficient at λmax)” value came out at 10.6 Lmol^−1cm^−1 × 10^−4, the λabs stood at 426 nm, the λem is 526 nm and the “η (quantum efficiency)” value was determined as 0.89. In data set [2] (toluene), the “εmax (molar extinction coefficient at λmax)” value is on record as 10.7 Lmol^−1cm^−1 × 10^−4, the λabs was 425 nm, the λem is 476 nm and the “η (quantum efficiency)” value came to 0.95.

In the case of `CCCCCCCCCCCCN(CCCCCCCCCCCC)CCCCCCCCCCCC` [TDA, tridodecylamine, reference compound], in data set [1], the “transmembrane electron transport across sBLM (current in CV)” value is reported as “Little to no transmembrane electron transfer occurs; also recorded: featureless”.

Take `CN(C)c1ccc2nc3ccc(=[N+](C)C)cc-3sc2c1` [methylene blue, reference compound]: the “Maximum voltage (Vmax)” value with yeast (13 μM) is reported as roughly 40 mV.
